Assay results as given in US10342819B2, “Oligonucleotide having non-natural nucleotide at 5′-terminal thereof” (Kyowa Hakko Kirin Co., Ltd., priority 2014, dated 2019).

target: T1, AGO2-MID domain (Homo sapiens, UniProt Q9UKV8); experiment: Biacore competition experiment of nucleotide (monomer) for the AGO2-MID domain (Test Examples 7 and 8); assay type: binding; settings: Test Example 7; 2.5 μg/mL AGO2-MID domain solution containing the monomer at 100 μM; read-out: inhibition rate (%) (100 μM AGO2-MID domain solutions)
T1 construct: mixed with an equal amount of a 5 μg/mL AGO2-MID domain solution
Method: HBS-EP+ 10× was diluted to 10-fold with pure water, and DTT was added thereto to give a final concentration of 2 mM, followed by filtration through a filter to prepare an HBS-EP+ 2 mM DTT aqueous solution. To this solution, dimethyl sulfoxide (DMSO) was added to give a final concentration of 1%, whereby a running buffer was prepared.
A monomer solution dissolved in DMSO or distilled water was diluted to 200 μM, 40 μM, 8 μM, and 1.6 μM/(2% DMSO, HBS-EP+, 2 mM DTT), and each of the diluted solutions was mixed with an equal amount of a 5 μg/mL AGO2-MID domain solution diluted with the HBS-EP+2 mM DTT solution, whereby 2.5 μg/mL AGO2-MID domain solutions containing the monomer at 100 μM, 20 μM, 4 μM, and 0.8 μM, respectively, were prepared as the HBS-EP+, 2 mM DTT, 1% DMSO solution.
A competition experiment by the siRNA was performed using a chip immobilized dT(16)-Biotin oligo thereon in the same manner as in Test Example 6. The flow rate is set to 30 μL/minute throughout the experiment, and one cycle is performed as follows: binding for 60 seconds, dissociation for 5 seconds, and regeneration 1 M NaCl for 5 seconds.
In order to stabilize the machine, the first 10 cycles are performed by adding only HBS-EP+, and thereafter, the measurement is performed for each monomer in the order of HBS-EP+(BLANK), a 2.5 μg/mL AGO2-MID domain solution (CONTROL), and 2.5 μg/mL AGO2-MID domain solutions (Sample) containing the monomer at 100 μM, 20 μM, 4 μM, and 0.8 μM, respectively, and a 2.5 μg/mL AGO2-MID domain solution (CONTROL). In the analysis, the binding level of the graph obtained by subtracting the graph for blank immobilization from the graph for the immobilized cell is used, and the residual binding ratio (%) is calculated according to ([Sample]−[BLANK])/([CONTROL]−[BLANK])×100, and the inhibition ratio (%) is calculated according to 100−(residual binding ratio).
In Table 36, the inhibition ratios (%) of 8-Br-dA (Compound I-1) and 5-fluoro-2′-deoxyuridine monophosphate (Compound I-4), and for comparison thereof, the inhibition ratios (%) of adenosine monophosphate (AMP) and uridine monophosphate (UMP) are shown.

| Compound | inhibition at 100 µM [%] |
| --- | --- |
| Nc1ncnc2c1ncn2[C@@H]1O[C@H](COP(=O)(O)O)[C@@H](O)[C@H]1O [AMP, adenosine monophosphate, reference compound] | 27.1 |
| O=c1ccn([C@@H]2O[C@H](COP(=O)(O)O)[C@@H](O)[C@H]2O)c(=O)[nH]1 [UMP, uridine monophosphate, reference compound] | 35.9 |
| Nc1ncnc2c1nc(Br)n2[C@H]1C[C@H](O)[C@@H](COP(=O)(O)O)O1 [compound I-1, 8-bromo-2′-deoxyadenosine monophosphate] | 68.6 |
| O=c1[nH]c(=O)n([C@H]2C[C@H](O)[C@@H](COP(=O)(O)O)O2)cc1F [compound I-4, 5-fluoro-2′-deoxyuridine monophosphate] | 42.7 |

same assay, conditions: Test Example 8; 2.5 μg/mL AGO2-MID domain solution containing the monomer at 100 μM; read-out: inhibition rate (%) (100 μM AGO2-MID domain solutions)

| Compound | inhibition at 100 µM [%] |
| --- | --- |
| COc1cc2c(=O)[nH]c(=O)n([C@@H]3O[C@H](COP(=O)(O)O)[C@@H](O)[C@H]3O)c2cc1OC [compound I-5, ((2R,3S,4R,5R)-5-(6,7-dimethoxy-2,4-dioxo-3,4-dihydroquinazolin-1(2H)-yl)-3,4-dihydroxytetrahydrofuran-2-yl)methyl phosphate] | 87.4 |
| O=c1[nH]c(=O)n([C@@H]2O[C@H](COP(=O)(O)O)[C@@H](O)[C@H]2O)c2ccc(Cl)cc12 [compound I-6, ((2R,3S,4R,5R)-5-(6-Chloro-2,4-dioxo-3,4-dihydroquinazolin-1(2H)-yl)-3,4-dihydroxytetrahydrofuran-2-yl)methyl phosphate] | 70 |
| O=c1[nH]c(=O)n([C@@H]2O[C@H](COP(=O)(O)O)[C@@H](O)[C@H]2O)c2cc(Cl)ccc12 [compound I-7, ((2R,3S,4R,5R)-5-(7-Chloro-2,4-dioxo-3,4-dihydroquinazolin-1(2H)-yl)-3,4-dihydroxytetrahydrofuran-2-yl)methyl phosphate] | 71.7 |
| O=c1[nH]c(=O)n([C@@H]2O[C@H](COP(=O)(O)O)[C@@H](O)[C@H]2O)c2cccc(Cl)c12 [compound I-8, ((2R,3S,4R,5R)-5-(5-Chloro-2,4-dioxo-3,4-dihydroquinazolin-1(2H)-yl)-3,4-dihydroxytetrahydrofuran-2-yl)methyl phosphate] | 77.1 |
| O=c1[nH]c(=O)n([C@@H]2O[C@H](COP(=O)(O)O)[C@@H](O)[C@H]2O)c2ccsc12 [compound I-9, (2R,3S,4R,5R)-5-(2,4-Dioxo-3,4-dihydrothieno[3,2-d]pyrimidin-1(2H)-yl)-3,4-dihydroxytetrahydrofuran-2-yl)methyl phosphate] | 70.9 |
| O=P(O)(O)OC[C@H]1O[C@@H](n2cnc3c(/C=C/c4ccccc4)ncnc32)[C@H](O)[C@@H]1O [compound I-10, ((2R,3S,4R,5R)-3,4-dihydroxy-5-(6-((E)-styryl)-9H-purin-9-yl)tetrahydrofuran-2-yl)methyl phosphate] | 73.5 |
| CN(C)c1ncnc2c1nc(Br)n2[C@@H]1O[C@H](COP(=O)(O)O)[C@@H](O)[C@H]1O [compound I-11, ((2R,3S,4R,5R)-6-(8-bromo-6-(dimethylamino)-9H-purin-9-yl)-3,4-dihydroxytetrahydrofuran-2-yl)methyl phosphate] | 60.9 |
| CN(C)c1ncnc2c1nc(C#N)n2[C@@H]1O[C@H](COP(=O)(O)O)[C@@H](O)[C@H]1O [compound I-12, ((2R,3S,4R,5R)-6-(8-cyano-6-(dimethylamino)-9H-purin-9-yl)-3,4-dihydroxytetrahydrofuran-2-yl)methyl phosphate] | 74.2 |
| O=c1cc(I)n([C@@H]2O[C@H](COP(=O)(O)O)[C@@H](O)[C@H]2O)c(=O)[nH]1 [compound I-13, ((2R,3S,4R,5R)-5-(6-Iodo-2,4-dioxo-3,4-dihydropyrimidin-1(2H)-yl)-3,4-dihydroxytetrahydrofuran-2-yl)methyl phosphate] | 63.4 |

same assay, conditions: conclusion from Test Example 7

| Compound | affinity for AGO2 (inhibition ratio) compared with adenosine monophosphate or uridine monophosphate |
| --- | --- |
| O=c1[nH]c(=O)n([C@H]2C[C@H](O)[C@@H](COP(=O)(O)O)O2)cc1F [5-fluoro-2′-deoxyuridine monophosphate] | higher affinity for AGO2 |
| Nc1ncnc2c1nc(Br)n2[C@H]1C[C@H](O)[C@@H](COP(=O)(O)O)O1 [compound I-1, 8-bromo-2′-deoxyadenosine monophosphate] | higher affinity for AGO2 |
